Experimental data published in publication PMC11212140, “Molecular Bidents with Two Electrophilic Warheads as a New Pharmacological Modality” (ACS Central Science, 2024).

Key:
Test in all cases: KiNativ profiling in H3255 cells
Type in all cases: cell-based, human
MST1, MST2 = details: 2.5 µM; Lys2; DIKAGNILLNTEGHAK
Protocol: (§1) treatment. Cell viability was determined by using CellTiter-Glo (Promega #G7571) according to the manufacturer’s instructions, measuring luminescence using an Envision plate-reader (PerkinElmer Inc.). Dose-response curves were generated using non-linear regression curve fit in GraphPad Prism 9.2.0(GraphPad Software).
(§2) Cellular target engagement assays
(§3) After 6 hours treatment, cells were pelleted, washed with PBS once and lysed with IP lysis buffer (25mMTris-HCl pH 7.4, 150mM NaCl, 1 mM EDTA, 1% NP-40 and 5% glycerol) (Thermo Fisher Scientific, Cat#87788) containing protease/phosphatase inhibitor cocktail (Roche). The protein concentrations were measured by BCA analysis (Pierce). Cell lysates were incubated with 1 μM of biotin conjugated probe (bio-Osimertinib or bio-ZNL-0013) at 4 ℃ overnight, and incubated for 3 more hours at room temperature. Lysates with probe were then incubated with streptavidin beads (Thermo Fisher, #20349) for 2 hours at 4 ℃. The protein-probe complexes on the beads were then subjected to immunoblotting.
(§4) H3255 cells were plated with 6.5x10^6 per condition in fresh media in 15 cm plates and treated the 80% confluency for 2 hours with DMSO or 2.5 μM of ZNL-0056. To harvest cells, plates were washed 3 times with cold PBS, then collected by scraping into 4 mL of cold PBS containing protease and phosphatase inhibitors. Cells were pelleted by centrifugation at 1350 g at 4 ℃ for 5 minutes and immediately frozen in liquid nitrogen. The frozen samples were sent to ActivX Biosciences (La Jolla, CA) for the remainder of the KiNativ profiling experiment4.
(§5) Protein expression and purification
(§6) Human EGFR kinase domain (residues 696-1022) with T790M and V948R mutations was cloned with an N-terminal, protease cleavable His -GST tag. Recombinant protein was expressed in SF9 insect cells using baculovirus generated from the pFastBac system (Thermo Fisher) .
(§7) Briefly, cells at a density of ~2x10^6 cells/mL were infected with 1% (v/v) virus stock and grown for ~72 hours before harvesting and freezing the cell pellet . Infected cells were lysed in buffer A (50 mM Tris pH 8.0, 500 mM NaCl, 5% glycerol, 0.5 mM Tris(2-carboxyethyl)phosphine [TCEP]), ultracentrifuged at >200,000 rcf for 1 h, and the supernatant flo wed through Ni-NTA resin by gravity. The resin was washed with buffer A supplemented with 40 mM imidazole by […]

MAST3 = tested on: T1, MAST3; details: 2.5 µM; Lys2; DLKPDNLLITSLGHIK
T1 construct: purchased ActivX Biosciences (KiNativ)
Protocol: as §1, §2, §3, §4, §5, §6, §7

PKCa, PKCg = details: 2.5 µM; Other; NLIPMDPNGLSDPYVKLK
Protocol: as §1, §2, §3, §4, §5, §6, §7

PIK3CB = tested on: T2, PIK3CB; details: 2.5 µM; ATP; VFGEDSVGVIFKNGDDLRQDMLTLQMLR
T2 construct: purchased ActivX Biosciences (KiNativ)
Protocol: as §1, §2, §3, §4, §5, §6, §7

CDK5 = tested on: T3, CDK5; details: 2.5 µM
T3 construct: purchased ActivX Biosciences (KiNativ)
Protocol: as §1, §2, §3, §4, §5, §6, §7

SYK = tested on: T4, SYK; details: 2.5 µM
T4 construct: purchased ActivX Biosciences (KiNativ)
Protocol: as §1, §2, §3, §4, §5, §6, §7

AMPKa1, AMPKa2 = details: 2.5 µM
Protocol: as §1, §2, §3, §4, §5, §6, §7

ROCK1, ROCK2 = details: 2.5 µM; Lys2; DVKPDNMLLDK
Protocol: as §1, §2, §3, §4, §5, §6, §7

MARK3, MARK4 = details: 2.5 µM; Lys1; EVAIKIIDK
Protocol: as §1, §2, §3, §4, §5, §6, §7

HER2/ErbB2 = tested on: T5, HER2/ErbB2; details: 2.5 µM
T5 construct: purchased ActivX Biosciences (KiNativ)
Protocol: as §1, §2, §3, §4, §5, §6, §7

VRK2 = tested on: T6, VRK2; details: 2.5 µM; Lys2; MLDVLEYIHENEYVHGDIKAANLLLGYK
T6 construct: purchased ActivX Biosciences (KiNativ)
Protocol: as §1, §2, §3, §4, §5, §6, §7

MLK1 = tested on: T7, MLK1; details: 2.5 µM; Lys2; DLKSSNILILQK
T7 construct: purchased ActivX Biosciences (KiNativ)
Protocol: as §1, §2, §3, §4, §5, §6, §7

MST4, YSK1 = details: 2.5 µM; Lys2; DIKAANVLLSEQGDVK
Protocol: as §1, §2, §3, §4, §5, §6, §7

MARK2 = tested on: T8, MARK2; details: 2.5 µM; Lys1; EVAVKIIDKTQLNSSSLQK
T8 construct: purchased ActivX Biosciences (KiNativ)
Protocol: as §1, §2, §3, §4, §5, §6, §7

IRE1 = tested on: T9, IRE1; details: 2.5 µM; Lys2; DLKPHNILISMPNAHGK
T9 construct: purchased ActivX Biosciences (KiNativ)
Protocol: as §1, §2, §3, §4, §5, §6, §7

CaMK1a = tested on: T10, CaMK1a; details: 2.5 µM; Lys1; LVAIKCIAK
T10 construct: purchased ActivX Biosciences (KiNativ)
Protocol: as §1, §2, §3, §4, §5, §6, §7

DGKA = tested on: T11, DGKA; details: 2.5 µM; ATP; IDPVPNTHPLLVFVNPKSGGK
T11 construct: purchased ActivX Biosciences (KiNativ)
Protocol: as §1, §2, §3, §4, §5, §6, §7

CaMK2d = tested on: T12, CaMK2d; details: 2.5 µM; Lys1; IPTGQEYAAKIINTKK
T12 construct: purchased ActivX Biosciences (KiNativ)
Protocol: as §1, §2, §3, §4, §5, §6, §7

CDK7 = tested on: T13, CDK7; details: 2.5 µM
T13 construct: purchased ActivX Biosciences (KiNativ)
Protocol: as §1, §2, §3, §4, §5, §6, §7

AurA, AurB, AurC = details: 2.5 µM; ATP Loop; GKFGNVYLAR
Protocol: as §1, §2, §3, §4, §5, §6, §7

Wnk1, Wnk2 = details: 2.5 µM; ATP Loop; GSFKTVYK
Protocol: as §1, §2, §3, §4, §5, §6, §7

NDR2 = tested on: T14, NDR2; details: 2.5 µM
T14 construct: purchased ActivX Biosciences (KiNativ)
Protocol: as §1, §2, §3, §4, §5, §6, §7

STLK5 = tested on: T15, STLK5; details: 2.5 µM
T15 construct: purchased ActivX Biosciences (KiNativ)
Protocol: as §1, §2, §3, §4, §5, §6, §7

Wnk1, Wnk2, Wnk4 = details: 2.5 µM; Activation Loop; IGDLGLATLKR
Protocol: as §1, §2, §3, §4, §5, §6, §7

[1] = Activation Loop, LLDIDETEYHADGGKVPIK
[2] = Activation Loop, YSVKVLPWLSPEVLQQNLQGYDAK

SMILES | Inhibition (MST1, MST2) [%] | Inhibition (MAST3) [%] | Inhibition (PKCa, PKCg) [%] | Inhibition (PIK3CB) [%] | Inhibition (CDK5; Lys1, NRETHEIVALKR) [%] | Inhibition (CDK5; Lys2, DLKPQNLLINR) [%] | Inhibition (SYK; Activation Loop, ISDFGLSKALR) [%] | Inhibition (SYK; Lys1, TVAVKILK) [%] | Inhibition (AMPKa1, AMPKa2; Lys1, VAVKILNR) [%] | Inhibition (AMPKa1, AMPKa2; Lys2, DLKPENVLLDAHMNAK) [%] | Inhibition (ROCK1, ROCK2) [%] | Inhibition (MARK3, MARK4) [%] | Inhibition (HER2/ErbB2; [1]) [%] | Inhibition (HER2/ErbB2; Lys1, GIWIPDGENVKIPVAIKVLR) [%] | Inhibition (VRK2) [%] | Inhibition (MLK1) [%] | Inhibition (MST4, YSK1) [%] | Inhibition (MARK2) [%] | Inhibition (IRE1) [%] | Inhibition (CaMK1a) [%] | also measured
C=CC(=O)Nc1cc(C(=O)Nc2nc3cccc(C)c3n2[C@@H]2CCCCN(C(=O)C=C)C2)cs1 [ZNL-0056] | 16.1 | 3.9 | -17.5 | -22.3 | -65.5 | 18.0 | 4.4 | 4.7 | 20.9 | 9.7 | -10.4 | 16.2 | 65.9 | 60.7 | 7.9 | -4.3 | -9.0 | 25.2 | -29.1 | 5.1 | Inhibition (DGKA): 14.0%; Inhibition (CaMK2d): -4.1%; Inhibition (CDK7; Lys1, DKNTNQIVAIKK): -17.3%; Inhibition (CDK7; Lys2, DLKPNNLLLDENGVLK): -3.1%; Inhibition (AurA, AurB, AurC): 2.2%; Inhibition (Wnk1, Wnk2): -0.1%; Inhibition (NDR2; Lys1, DTGHIYAMKILR): 11.0%; Inhibition (NDR2; Lys2, DIKPDNLLLDAK): 3.3%; Inhibition (STLK5; [2]): -9.2%; Inhibition (STLK5; Lys2, SVKASHILISVDGK): -41.2%; Inhibition (Wnk1, Wnk2, Wnk4): 1.3%
C=CC(=O)Nc1cc(Nc2nccc(-c3cn(C)c4ccccc34)n2)c(OC)cc1N(C)CCN(C)C [Osimertinib, osimertinib, reference compound] | 17.9 | -21.8 | -21.6 | -1.4 | -40.7 | 26.2 | -19.6 | -0.9 | 6.4 | -33.2 | -1.6 | -12.5 | 82.4 | 89.1 | 6.4 | 34.9 | -8.7 | 7.8 | 13.6 | 7.0 | Inhibition (DGKA): -5.7%; Inhibition (CaMK2d): -3.1%; Inhibition (CDK7; Lys1, DKNTNQIVAIKK): 34.0%; Inhibition (CDK7; Lys2, DLKPNNLLLDENGVLK): 14.2%; Inhibition (AurA, AurB, AurC): 20.5%; Inhibition (Wnk1, Wnk2): -14.8%; Inhibition (NDR2; Lys1, DTGHIYAMKILR): -19.7%; Inhibition (NDR2; Lys2, DIKPDNLLLDAK): -0.656%; Inhibition (STLK5; [2]): 2.8%; Inhibition (STLK5; Lys2, SVKASHILISVDGK): 3.2%; Inhibition (Wnk1, Wnk2, Wnk4): -32.3%
